Measured values: patent US9532519B2, “Plant growth regulator and use thereof” (Japan Science and Technology Agency, priority 2006, dated 2017)

Key:
Type in all cases: in vivo
Sweet corn [1] = assay: Effect of oxidized glutathione on productivity of corn under nitrogen-deficient condition; settings: nitrogen-deficient then 30 kgN/10a; 0.2, 0.5, 1.0 mM GSSG, 50 mL two times a week from 8 weeks after sowing
Description: Sweet corn was sown and cultivated for […] (7 weeks) after the sowing without supplying a nitrogen source to the sweet corn. Thereafter, the sweet corn was cultivated with 30 kgN/10a of a nitrogen source. […] See the cultivation conditions in (c) of FIG. 33.
In order to examine the amount of production of the plants in more detail, the amounts of biomass of fruits, ground parts, and portions other than the fruits were measured, and harvest index was calculated.

Arabidopsis [2] = assay: Influence 2 of treatment condition on seeds of Arabidopsis (start time of 1 mM-GSSG); settings: regardless of the time of treating
Description: Seeds of Arabidopsis were sown in pods filled with soil immersed in water. The pods were transferred to trays with water containing 1 mM-GSSG 2 days after, 1 week after, 2 weeks after, 3 weeks after, 4 weeks after, 5 weeks after, 6 weeks after, or 7 weeks after the sowing.
(§1) Arabidopsis was cultivated under the same conditions as those described in <1. Influence of oxidized glutathione on growth of Arabidopsis> except for the above condition.
(§2) The seed weight per one pod, obtained from Arabidopsis thus cultivated (three plants in each pod), was measured.

Arabidopsis [3] = assay: Influence 5 of treatment condition on Arabidopsis: seed weight, dry weight, harvest index
Description: Seeds of Arabidopsis were sown in pods filled with soil immersed in water. The pods were transferred to trays filled with water containing 0.2 mM-GSSG or 1 mM-GSSG and cultivated there only for two weeks that were the first and second weeks (0th-14th day), the third and fourth weeks (15th-28th day), the fifth and sixth weeks (29th-42nd day), or the seventh and eighth weeks (43rd-56th day) after the sowing. That is, Arabidopsis were treated with 0.2 mM-GSSG or 1 mM-GSSG only for two weeks in a specific growth period.
as §1
The seed weight, dry weight, and harvest index of Arabidopsis thus cultivated (three plants in each pod) were measured and an average of three pods was calculated.

Arabidopsis [4] = assay: Influence 1 of treatment condition on seeds of Arabidopsis (concentration and duration from sowing)
Description: Seeds of Arabidopsis were sown in pods filled with soil immersed in 0 mM-, 0.01 mM-, 0.2 mM-, 1 mM-, 2 mM-, and 5 mM-GSSG.
as §1
The seed weight per one pod, obtained from Arabidopsis thus cultivated (three plants in each pod), was measured. The results of the measurement are shown in FIGS. 10-12. n is the number of plants that can be finally harvested.

Sweet corn [5] = assay: Effect 4 of oxidized glutathione on productivity of corn (method and time of treatment); settings: 20 mL of 0.2 mM-GSSG each time, to roots or sprayed to stem and leaves; any of the treatment times
Description: Sweet corn was cultivated under the same conditions as those of <15.
Harvest index of the plant thus obtained was measured.

[6] = test system: Rose (breed; English rose); assay: Influence of oxidized glutathione on growth of rose (English rose); settings: 50 mL of 0.5 mM-GSSG two times a week for four months, then pruned
Description: Rose (breed; English rose) was fertilized with 50 mL of a 0.5 mM-GSSG solution two times a week for four months and then pruned completely and cultivated.

Arabidopsis seeds = assay: Germination rate (ripeness) of seeds from Arabidopsis cultivated with oxidized glutathione
Source text: Ripeness of seeds obtained from Arabidopsis cultivated with oxidized glutathione was examined.

[7] = test system: Arabidopsis GA synthesis mutants ga20ox1; assay: Effect of oxidized glutathione on gibberellin synthesis mutant; settings: GSSG (1 mM) from sowing
Source text: In the drawing, “Col” indicates a wild-type Columbia, and “ga20ox1” indicates a mutant in which T-DNA is inserted into a GA20 oxidase gene that codes an enzyme of a GA biosynthesis. “ga20ox1-1” and “ga20ox1-2” are independent mutants in which T-DNA are inserted into different portions.

[8] = test system: Sweet corn (Canberra 90, TAKII & CO., LTD.); assay: Effect 2 of oxidized glutathione on productivity of corn (time of treatment)
Description: Sweet corn (Canberra 90, TAKII & CO., LTD.) was sown, and then transferred to a hydroponics pot ( 1/2000 are) filled with a culture soil (6 L of vermiculite as the lower layer, 3 L of The Kureha Ikubyou Baido soil as the middle layer, and 3 L of vermiculite as the upper layer) two weeks later and additionally fertilized with 3 g of KUMIAI RIN […] S604 four weeks later and six weeks later.
Further, the GSSG-treated plant was given 50 mL of 0.2 mM-GSSG solution four times in 2 weeks (two times a week) after 2 weeks, 4 weeks, or 6 weeks had elapsed from the sowing. Further, there were prepared a management zone to which 0.2 mM-GSSG was given 22 times in total for 11 weeks after 2 weeks had elapsed from the sowing and a management zone to which 0.2 mM-GSSG was not given.
The amount of fruits and the amount of biomass of ground parts of each plant were measured and harvest index was calculated.

[9] = test system: Rose saplings (breed; JJ scarlet and JJ apricot); assay: Effect 2 on promoting growth of sprout and floral bud of rose (JJ scarlet and JJ apricot); settings: 50 mL of 0.5 mM-GSSG two times a week; fourth and eighth day from the fertilization
Description: Rose saplings (breed; JJ scarlet and JJ apricot) were purchased at a hardware store and cultivated in pods for rice hydroponics. The rose saplings were fertilized with 50 mL of a 0.5 mM-GSSG solution in the form of a liquid fertilizer two times a week.
In (a)-(d) of FIG. 35, the breeds of three plants are JJ scarlet, JJ apricot, and JJ scarlet, respectively from the left.

eustoma = assay: Effect on promoting growth of roots of eustoma; settings: MS culture medium containing 1 mM-GSSG or GSH, grown 1 month, transferred to planter
Source text: In the planter, 2 parts of vermiculite, 1 part of The Kureha Ikubyou Baido soil, and 1 part of vermiculite were layered as a lower layer, a middle layer, and an upper layer, respectively, and the above plants were transferred thereto.

Arabidopsis [10] = assay: Influence 4 of treatment condition on seeds of Arabidopsis (two weeks of 1 mM-GSSG); settings: 1 mM-GSSG only for two weeks in a specific growth period
Description: Seeds of Arabidopsis were sown in pods filled with soil immersed in water. The pods were transferred to trays filled with water containing 1 mM-GSSG and cultivated there only for two weeks that are the first and second weeks (0th-14th day), the second and third weeks (8th-21st day), the third and fourth weeks (15th-28th day), the fourth and fifth weeks (22nd-35th day), the fifth and sixth weeks (29th-42nd day), or the sixth and seventh weeks (36th-49th day) after the sowing. That is, Arabidopsis were treated with 1 mM-GSSG only for two weeks in a specific growth period.
as §1, §2

[11] = 0.2 mM-GSSG, eleven weeks after two weeks had elapsed from the sowing

oxidized glutathione [GSSG]
amount of fruits vs not treated (Sweet corn [1]): larger amount of fruits
amounts of biomass of fruits, ground parts, portions other than the fruits, and harvest index vs not treated (Sweet corn [1]): larger amounts of biomass of fruits, ground parts, and portions other than the fruits and harvest index
seed weight per one pod vs no treatment (Arabidopsis [2]): more seed weight
dry weight vs not treated (Arabidopsis [3]; 0.2 mM-GSSG): increased little
harvest index vs not treated (Arabidopsis [3]; 0.2 mM-GSSG): increased
seed weight vs not treated (Arabidopsis [3]; 0.2 mM-GSSG): increased
dry weight vs not treated (Arabidopsis [3]; 1 mM-GSSG): evidently increased
seed weight vs not treated (Arabidopsis [3]; 1 mM-GSSG): evidently increased
harvest index vs not treated (Arabidopsis [3]; 1 mM-GSSG, except when treated 1 or 2 weeks after the sowing): evidently increased
seed weight per pod: effective concentration (Arabidopsis [4]; supplying GSSG for a long time): GSSG with low concentration is more effective than GSSG with high concentration
seed weight per pod: effective concentration (Arabidopsis [4]; supplying GSSG for a short time): GSSG with high concentration is more desirable
harvest index vs not treated (Sweet corn [5]): significantly increased
germination and growth of new buds vs not treated [6]: significantly earlier germination and significant promotion of growth of new buds
germination rate (Arabidopsis seeds; 2 days after the sowing): significantly high
germination rate, difference from seeds of plants cultivated normally (Arabidopsis seeds; 7 days after the sowing): almost no difference
germination speed of seeds of treated plants vs plants cultivated normally (Arabidopsis seeds; seeds sown in 1/2 MS culture media): germinated faster
seed weight [7]: significantly increased
number of flowers (sheaths) ([7]; 8 weeks after the sowing): also increased
number of lateral shoots vs water ([7]; 8 weeks after the sowing): significantly increased
amount of fruits and amount of biomass of ground parts per plant vs not treated [8, 11]: a larger amount of fruits and a larger amount of biomass of ground parts
harvest index vs not treated [8, 11]: great increase in harvest index
amount of fruits and amount of biomass of ground parts per plant vs not treated ([8]; 0.2 mM-GSSG, two weeks after four weeks had elapsed from the sowing): a larger amount of fruits and a larger amount of biomass of ground parts
amount of fruits and amount of biomass of ground parts per plant vs not treated ([8]; 0.2 mM-GSSG, two weeks after six weeks had elapsed from the sowing): a smaller amount of fruits and a smaller amount of biomass of ground parts
harvest index vs not treated ([8]; 50 mL of 0.2 mM-GSSG, two weeks after four weeks had elapsed from the sowing): great increase in harvest index
harvest index vs not treated ([8]; 50 mL of 0.2 mM-GSSG, two weeks after six weeks had elapsed from the sowing): larger harvest index
growth of sprout vs not treated [9]: promoted growth of sprout
growth of roots vs plants not treated with GSSG (eustoma): significant growth of roots
seed weight per one pod vs not treated (Arabidopsis [10]): significantly increased the seed weight
